In data set [1] the target is T1, thymidylate synthase (TS) (Homo sapiens, UniProt P04818).
T1 construct: endogenous in cells; host or cells: Hep G2
The data set can be described thus: Thymidylate synthase activity in treated Hep G2 cells. In kind it is cell-based. Conditions: 1 μM, 96 hrs post treatment.
Protocol: Briefly, 10^5 Hep G2 or TSU cells were grown in culture for 48 h and then the medium was made to a concentration of 1 μM with either po 1-mer or unconjugated 5FdU. At regular intervals (24 hrs, 48 hrs, 72 hrs and 96 hrs) after treatment, the medium was removed and replaced with medium containing deoxyuridine/[^3H]-deoxyuridine mixtures. Cells were incubated at 37° C. for 30 min. Cell medium was then removed and precipitated with charcoal. The supernatant was then counted to determine the presence of [^3H]-H2O. The measurable release of [^3H] as [^3H]-H2O from deoxyuridine, 5′-monophosphate (dUMP) substrate reflects thymidylate synthase activity.

Data set [2] has as its target T2, thymidylate synthetase (TS) (Mus musculus, UniProt P07607).
T2 construct: from tissue; host or cells: CD-1 mouse liver, supernatant of homogenate
The data set can be described thus: Thymidylate synthetase activity in mouse liver extract ([5-3H]-dUMP tritium release). It counts as biochemical, CD-1 mouse. As to the method:
A CD-1 mouse (Charles River, Wilmington, Mass.) was sacrificed and the liver removed. Approximately one gram of the tissue was subsequently washed in DPBS (Mediatech, Herndon, Va.) and placed in 3 volumes of buffer H. The tissue was then homogenized with a Dounce homogenizer and subsequently sonicated by three 15-second bursts followed by 1 min on ice. The tissue extract was then centrifuged for 10 min at 4,000 g and the resultant supernatant was spun for 20 min at 7,000 g. Three equal aliquots of this supernatant were then added to 0.9 μCi aliquots of 2′-Deoxyuridine 5′-monophosphate, diammonium salt, [5-^3H]. At this point, 5-Fluoro-2′-deoxyuridine 5′-monothiophosphate was added to one aliquot, 5-Fluoro-2′-deoxyuridine 5′-monophosphate was added to a second aliquot, and one aliquot was left untreated. The three samples were incubated at 37° C. for 30 min and precipitated with charcoal. The resultant supernatant was centrifuged at 1,600 g for 10 min. Aliquots of each sample were then counted using a Beckman scintillation counter. Percent (%) inhibition is expressed as follows: […]
These assays determined the ability of either 10 nM FdUMP (phosphodiester substrate) or FdUMPS (phosphorothioate substrate) to inhibit thymidylate synthetase (TS) activity. The objective of this assay was to determine the ability of TS to convert [5-^3H]-dUMP to ^3H-H2O.

A short description of data set [3]: Stability of 1-mer conjugates in RPMI 1640+10% FCS (PAGE). It counts as in vitro ADME. Particulars: up to 8 hrs, PAGE analysis. Here is the method:
Initially, the stability of the two neoglycoconjugates was assessed in RPMI 1640+10% FCS. […] In terms of cellular uptake, the po-linked conjugate at a dose of 1 μM was taken up rapidly in a progressive manner by Hep G2 cells in vitro to the extent of 24.75 pmoles/10^6 cells at 480 min. The rate of cellular uptake was next analyzed with respect to the administered dose of the conjugate. […] This amount doubled within the next 30 min and peaked at 25 pmoles/million cells at 480 min. […] While the administration of 4 μM conjugate led to a linear increase of conjugate uptake with respect to time, the rate at which cellular uptake occurred upon the administration of 8 μM conjugate rose sharply at 120 min.

Data set [4] relates to Hep G2 cells. The data set can be described thus: Cellular uptake of 5FU 1-mer conjugates by Hep G2 cells. It counts as cell-based, human. Conditions: 1 μM, 480 min. As to the method: Hep G2 cells were passaged into 2 cm^2 wells and grown in RPMI 1640 medium, which was supplemented with L-glutamine (10-040, CV) to a density of 0.3×10^6 to 0.4×10^6 cells per well (48-well cluster plate, Costar, Cambridge, Mass.). […] Then, an aliquot of the medium was saved for scintillation counting and the remainder of the medium aspirated from the well. The cells were washed with D-PBS (2×0.5 ml), treated with 0.25% trypsin (37° C., 2 minutes; trypsin prepared in HBSS with 1.0 mM EDTA) and suspended in fresh growth medium containing 10% FCS. The suspended cells were layered over silicon oil (0.5 ml) in a 1.7 ml conical microcentrifuge tube and pelleted by centrifugation at 14,000 rpm (12,000 g) for 30 seconds. The supernatant was carefully decanted and the cell pellet was lysed with 100 μl of a solution containing 0.5% NP 40, 100 mM sodium chloride, 14 mM Tris/HCl and 30% acetonitrile. The amount of radioactivity, and by inference the amount of neoglycoconjugate or oligomer associated with the cell lysate, was determined by scintillation counting.

Like-named read-outs stand apart in the source and are kept apart here.
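Throughout, for % injected dose in BLADDER: male CD-1 mice given radiolabeled test agent intravenously, organs removed at each time point and dissolved, radioactivity per organ measured by scintillation counting with efficiency correction.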
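Throughout, for % injected dose in BLOOD: male CD-1 mice given radiolabeled test agent intravenously, organs removed at each time point and dissolved, radioactivity per organ measured by scintillation counting with efficiency correction.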
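Throughout, for % injected dose in HEART: male CD-1 mice given radiolabeled test agent intravenously, organs removed at each time point and dissolved, radioactivity per organ measured by scintillation counting with efficiency correction.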
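Throughout, for % injected dose in KIDNEY: male CD-1 mice given radiolabeled test agent intravenously, organs removed at each time point and dissolved, radioactivity per organ measured by scintillation counting with efficiency correction.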

T2 sequence (P07607 whole entry): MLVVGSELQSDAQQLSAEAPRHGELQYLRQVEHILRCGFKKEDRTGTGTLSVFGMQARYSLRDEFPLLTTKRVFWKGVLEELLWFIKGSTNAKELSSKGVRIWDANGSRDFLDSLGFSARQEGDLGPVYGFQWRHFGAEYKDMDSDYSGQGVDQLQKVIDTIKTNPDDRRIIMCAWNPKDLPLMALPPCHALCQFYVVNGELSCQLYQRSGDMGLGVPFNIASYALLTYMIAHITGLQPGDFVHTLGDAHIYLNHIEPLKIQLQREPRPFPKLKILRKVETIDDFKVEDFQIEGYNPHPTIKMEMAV
T1 sequence (P04818 2-313 limits assumed): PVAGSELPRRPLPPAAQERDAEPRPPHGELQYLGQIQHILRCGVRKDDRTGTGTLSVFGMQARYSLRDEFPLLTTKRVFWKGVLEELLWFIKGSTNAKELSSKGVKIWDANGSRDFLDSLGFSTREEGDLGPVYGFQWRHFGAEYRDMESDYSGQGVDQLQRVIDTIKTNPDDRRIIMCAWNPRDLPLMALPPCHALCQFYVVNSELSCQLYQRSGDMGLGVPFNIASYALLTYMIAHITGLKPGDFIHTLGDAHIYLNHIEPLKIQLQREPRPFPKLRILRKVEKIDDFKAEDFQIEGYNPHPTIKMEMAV

As for `O=c1[nH]c(=O)n([C@H]2C[C@H](O)[C@@H](CO)O2)cc1F` [5FdU, 5-fluoro-2′-deoxyuridine], where the note is “15 MIN after tail vein i.v.”, the “% injected dose in BLADDER” value is reported as 0.91 ± 0.07%, the “% injected dose in BLOOD” value came to 0.03 ± 0.02%, the “% injected dose in HEART” value was determined as 0.21 ± 0.13% and the “% injected dose in KIDNEY” value came out at 0.42 ± 0.28%. For the same molecule, under “15 MIN after tail vein i.v.”, the “% injected dose in LG INT” value came to 1.09 ± 0.25%, the “% injected dose in LIVER” value amounted to 9.56 ± 3.83%, the “% injected dose in LUNGS” value was 0.17 ± 0.07% and the “% injected dose in MUSCLE” value is recorded as 9.29 ± 4.9%. Besides, where the note is “15 MIN after tail vein i.v.”, the “% injected dose in SM INT” value is 0.7 ± 0.04% and the “% injected dose in SPLEEN” value is listed as 0.11 ± 0.044%. Moreover, the “% injected dose in LIVER” value (15 MIN after tail vein i.v., listed as unconjugated 5FdU) was “less than 10%”. For the setting “30 MIN after tail vein i.v.”, the “% injected dose in BLADDER” value stood at 2.3 ± 1.58%, the “% injected dose in BLOOD” value is “.008 ± .0025%”, the “% injected dose in HEART” value was 0.03 ± .004% and the “% injected dose in KIDNEY” value worked out at 0.38 ± 0.3%. For the setting “30 MIN after tail vein i.v.”, the “% injected dose in LG INT” value came to 0.37 ± 0.19%, the “% injected dose in LIVER” value turned out to be 8.8 ± 1.23%, the “% injected dose in LUNGS” value was determined as 0.05 ± 0.006% and the “% injected dose in MUSCLE” value is 3.43 ± 1.06%. Besides, where the note is “30 MIN after tail vein i.v.”, the “% injected dose in SM INT” value was 0.61 ± 0.36% and the “% injected dose in SPLEEN” value amounted to 0.19 ± 0.26%. Besides, where the note is “60 MIN after tail vein i.v.”, the “% injected dose in BLADDER” value is reported as 2.99 ± 1.01%, the “% injected dose in BLOOD” value was “.007 ± .0023%”, the “% injected dose in HEART” value came to 0.28 ± 0.11% and the “% injected dose in KIDNEY” value was determined as 0.84 ± 0.31%. Also, for the setting “60 MIN after tail vein i.v.”, the “% injected dose in LG INT” value was found to be 1.04 ± 0.2%, the “% injected dose in LIVER” value is recorded as 4.35 ± 1.35%, the “% injected dose in LUNGS” value stood at 0.98 ± 0.3% and the “% injected dose in MUSCLE” value turned out to be 22.84%. For the setting “60 MIN after tail vein i.v.”, the “% injected dose in SM INT” value came to 3.57 ± 1.3% and the “% injected dose in SPLEEN” value is 0.57 ± 0.18%. Besides, under “240 MIN after tail vein i.v.”, the “% injected dose in BLADDER” value is on record as 0.010 ± .015%, the “% injected dose in BLOOD” value turned out to be 0.56 ± 0.28%, the “% injected dose in HEART” value was 0.32 ± 0.10% and the “% injected dose in KIDNEY” value was 0.44 ± 0.12%. Further, under “240 MIN after tail vein i.v.”, the “% injected dose in LG INT” value was determined as 1.61 ± 0.59%, the “% injected dose in LIVER” value stood at 3.97 ± 0.37%, the “% injected dose in LUNGS” value was determined as 1.03 ± 0.39% and the “% injected dose in MUSCLE” value is recorded as 46.56%. Under “240 MIN after tail vein i.v.”, the “% injected dose in SM INT” value came out at 4.19 ± 1.18% and the “% injected dose in SPLEEN” value is 0.38 ± 0.04%. Also, under “480 MIN after tail vein i.v.”, the “% injected dose in BLADDER” value is reported as “.001 ± .0006%”, the “% injected dose in BLOOD” value is reported as 0.23 ± 0.14%, the “% injected dose in HEART” value is given as 0.06 ± .02% and the “% injected dose in KIDNEY” value was 0.13 ± .044%. For the same molecule, where the note is “480 MIN after tail vein i.v.”, the “% injected dose in LG INT” value was 0.35 ± 0.09%, the “% injected dose in LIVER” value was determined as 1.25 ± 0.33%, the “% injected dose in LUNGS” value was determined as 0.08 ± 0.04% and the “% injected dose in MUSCLE” value turned out to be 7.9 ± 1.64%. Besides, where the note is “480 MIN after tail vein i.v.”, the “% injected dose in SM INT” value is 1.37 ± 0.7% and the “% injected dose in SPLEEN” value worked out at 0.09 ± 0.05%. For the same molecule, the “reduction of TS activity” value in data set [1] is on record as “approximately 20%”.

In the case of `O=c1[nH]c(=O)n([C@H]2C[C@H](O)[C@@H](COP(=O)(O)O)O2)cc1F` [FdUMP, 5-Fluoro-2′-deoxyuridine 5′-monophosphate], the “biological activity relative to FdUMPS” value in data set [2] (10 nM) is listed as “approximately twice”. Further, the inhibition (commonly the relative decrease from the control value, in per cent) at 0.01 µM in data set [2] (10 nM inhibitor, 1 μM dUMP, read-out: Percent Inhibition of Thymidylate Synthetase Activity) came out at 48%; in data set [2] (10 nM inhibitor, 10 μM dUMP, read-out: Percent Inhibition of Thymidylate Synthetase Activity) it was 28%.

On to `O=c1[nH]c(=O)n([C@H]2C[C@H](O)[C@@H](COP(O)(O)=S)O2)cc1F` [FdUMPS, 5-Fluoro-2′-deoxyuridine 5′-monothiophosphate], for which the inhibition at 0.01 µM in data set [2] (read-out: Percent Inhibition of Thymidylate Synthetase Activity, 10 nM inhibitor, 1 μM dUMP) came out at 27%; in data set [2] (read-out: Percent Inhibition of Thymidylate Synthetase Activity, 10 nM inhibitor, 10 μM dUMP), 13%.

As to `CC(=O)N[C@H]1[C@H](OCCCCCCNC(=O)CC[C@H](NC(=O)CC[C@H](NC(=O)[C@H](Cc2ccc(O)cc2)NC(=O)C2CCC(CN3C(=O)CC(SCCCCCCOP(O)(=S)OC[C@H]4O[C@@H](n5cc(F)c(=O)[nH]c5=O)C[C@@H]4O)C3=O)CC2)C(=O)NCCCCCCO[C@@H]2O[C@H](CO)[C@H](O)[C@H](O)[C@H]2NC(C)=O)C(=O)NCCCCCCO[C@@H]2O[C@H](CO)[C@H](O)[C@H](O)[C@H]2NC(C)=O)O[C@H](CO)[C@H](O)[C@@H]1O` (some centres unmarked) [ps 1-mer, YEE(ahGalNAc)3-SMCC-psFU], the “stability in media containing 10% FCS” value in data set [3] is given as “stable”. The molecule also displayed a cellular uptake in data set [4] of 24.98 pmoles/10^6 cells.
